Source: ChEMBL document CHEMBL5126497, “2-Difluoromethylpyridine as a bioisosteric replacement of pyridine-N-oxide: the case of quorum sensing inhibitors” (RSC Med Chem, 2021)
The source made the active and inactive calls. The calls are words filed in the database; no cut-off is given here.

Key:
[1] = Inhibition of quorum sensing system in Chromobacterium violaceum ATCC 31352 assessed as reduction in violacein production at 100 uM relative to control
Homo sapiens = species on record: Homo sapiens; assay: Activation of protease (unknown origin); conditions: filed as activator
Pseudomonas aeruginosa = assay: Inhibition of biofilm formation in Pseudomonas aeruginosa at 100 uM measured after 48 hrs relative to control; format: functional
[2] = Inhibition of quorum sensing system in Pseudomonas aeruginosa transfected with lasB-gfp

SMILES	inhibition [1] [%]	Activity (Homo sapiens)	IC50 [2] [µM]	inhibition [2]	inhibition at 100 µM (Pseudomonas aeruginosa) [%]
COC(=O)c1ccnc(C(F)F)c1	59	Active	27	–	75
N#Cc1cc[n+]([O-])cc1	–	–	–	Active	–
COC(=O)c1ccncc1C(F)F	–	–	–	Active	–
FC(F)c1ccc2ccccc2n1	–	–	–	Active	–
FC(F)c1cc(Cc2ccc(Cl)cc2)ccn1	–	–	–	Active	–
O=[N+]([O-])c1cc[n+]([O-])cc1	37.5	Active	33	–	71
FC(F)c1ccncc1	–	–	–	Active	–
O=C(c1ccc(Cl)cc1)c1ccnc(C(F)F)c1	57	Active	35	–	73

Now from value to compound, other results behind:

inhibition [1] [%]	Activity (Homo sapiens)	IC50 [2] [µM]	inhibition [2]	SMILES	inhibition at 100 µM (Pseudomonas aeruginosa) [%]
–	–	–	Active	FC(F)c1cc(Oc2ccccc2)ccn1	–
66	Active	19	–	N#Cc1ccnc(C(F)F)c1	85
–	–	–	Active	FC(F)c1cccnc1	–
–	–	–	Active	FC(F)c1ccccn1	–
–	–	–	Active	FC(F)c1cc(-c2ccccc2)ccn1	–
–	–	–	Active	FC(F)c1nccc2ccccc12	–
